Values joined by “and” are separate entries in the source; they are usually repeats but may differ in a detail not shown here. Equal entries are not always repeated. Where two headings read alike, the source gives them in different places. Each block holds one molecule with its values, some of them ahead of it.
Experiments:
[1] = system: NMDAR; test: NMDAR blocking activity, whole-cell voltage clamp (patch-clamp) recordings from rat hippocampal neurons; type: cell-based; conditions: read-out: IC50 (NMDAR antagonist activity)
[2] = In vivo brain penetration measurement in rat (plasma and brain concentration, Kp"brain"); conditions: for Brain concentration / Plasma concentration / concentration at 3.75 h: male Sprague-Dawley rat, end of 3.75 h constant-rate i.v. infusion; for Brain concentration / Plasma concentration / concentration at 3.75 h / Kp at 3.75 h / Kp"brain" (total brain/plasma concentration ratio at steady state): 4 mg/kg; for concentration at 3.75 h / Kp at 3.75 h: male, Sprague-Dawley, iv; for Kp at 3.75 h: brain/plasma; for Kp at 3.75 h / Kp"brain" (total brain/plasma concentration ratio at steady state): 3.75 h i.v. infusion
Experimental: The femoral vein of male Sprague-Dawley rats (CRL) weighing around 250 g was surgically catheterized at least 72 hours prior to the experiment. The drug was administered as 3.75 h constant-rate intravenous infusion to approach steady state, using a flow rate of 0.8 mL/h, corresponding to dosage of 4 mg/kg (1.067 mg/kg/h, i.e. 1 mg/rat of ˜250 g). The vehicle used was saline.
At the end of the infusion, the rats were anesthetized by inhalation of isoflurane, and blood was collected in a heparinized tube from the abdominal aorta, followed by immediate rinsing of the bloodstream for 2 minutes with saline at a rate of 15 mL/min using a peristaltic pump and left intraventricle cannula (flowing via right atrium). The brain (without cerebellum) was removed, and transferred in a tube and homogenized in two volumes of deionized water using a tissue homogenizer (Precellys24). All samples were stored at −20° C. until analysis. Plasma and brain homogenate sample preparation was performed using solid phase extraction on OASIS® WCX (Waters) and compounds were quantified by reversed phase liquid chromatography and positive electrospray ionization and multiple reaction monitoring mass spectrometry (LC-MS/MS).
This parameter is defined as the ratio of concentrations in brain and blood, Kp“brain” (Cbrain/Cplasma) or log(BB). Log(BB) is the logarithm of the ratio of the steady-state total concentration of a compound in the brain to that in the blood/plasma, log(BB)=log(Cbrain/Cplasma). This parameter depends upon the passive diffusion characteristics, the implication of membrane transporters at the BBB level and the relative drug binding affinity differences between the plasma proteins and brain tissue. Generally, compounds with a brain/plasma ratio of greater than 0.3-0.5 are considered to have sufficient access to the CNS, compounds with a value greater than 1 freely cross the BBB, whereas compounds with a brain/plasma ratio smaller than 0.1 may be unable to enter the CNS.
Thus, the brain penetration of memantine and Compound N^o1 was measured in rat by establishing the brain/plasma ratio, Kp“brain” in triplicate (3 rats/Compound). The three tables below (Tables 1-3) show the results on plasma concentration, brain concentration and calculation of the Kp“brain” for the two compounds memantine and Compound N^° 1.

[3] = rat hippocampal neurons, -60 mV, currents evoked by 100 μM NMDA and 20 μM D-serine
[4] = rat, brain, mean of 3 rats, read-out: Brain concentration, Mean
[5] = rat, rat, mean of 3 rats, read-out: Kp"brain", Mean
[6] = rat, plasma, individual rats, read-out: Plasma concentration
[7] = rat, plasma, mean of 3 rats, read-out: Plasma concentration, Mean

- IC50 [1, 3]: 110 µM
Structure (SMILES): CCCC[N+](C)(C)C12CC3CC(C)(CC(C)(C3)C1)C2 [Compound No4, N-Butyl-N,N-3,5-tetramethyladamantan-1-ammonium iodide]

- IC50 [1, 3]: 14.3 µM
Structure (SMILES): CC(C)CC[N+](C)(C)C12CC3CC(C)(CC(C)(C3)C1)C2 [Compound No6, N-isoPentyl-N,N-3-5-tetramethyladamantan-1-ammonium iodide]

- IC50 [1, 3]: 3.5 µM
Structure (SMILES): CC12CC3CC(C)(C1)CC([N+](C)(C)CC1CC1)(C3)C2 [Compound No8, N-(Cyclopropylmethyl)-N,N-3,5-tetramethyladamantan-1-ammonium iodide]

- IC50 [1, 3]: 35.2 µM
Structure (SMILES): CC12CC3CC(C)(C1)CC([N+](C)(C)CC1CCCCC1)(C3)C2 [Compound No9, N-(Cyclohexylmethyl)-N,N-3,5-tetramethyladamantan-1-ammonium iodide]

The remaining lines, values behind:

Structure (SMILES): CC12CC3CC(C)(C1)CC([N+](C)(C)C)(C3)C2 [Compound No1, N,N,N,3,5-Pentamethyladamantan-1-ammonium iodide]
- IC50 [1, 3]: 9.9 µM
- Brain concentration ([2]; individual rats): 0.90 ng/g and 3.57 ng/g and 3.03 ng/g
- Plasma concentration ([2]; individual rats): 23.11 ng/mL and 24.52 ng/mL
- concentration at 3.75 h [2, 4]: 2.5 ng/g
- Kp at 3.75 h [2, 5]: 0.091
- concentration at 3.75 h [2, 6]: 34.8 ng/mL
- concentration at 3.75 h [2, 7]: 27.5 ng/mL
- Kp"brain" (total brain/plasma concentration ratio at steady state) ([2]; rat, individual rats): 0.15 and 0.09 and 0.04

Structure (SMILES): CC12CC3CC(C)(C1)CC([N+](C)(C)C)(C3)C2 [Compound No1′]
- IC50 ([1]; rat hippocampal neurons, -60 mV, currents evoked by 100 μM NMDA and 20 μM D-serine, listed as Compound N^o1′): ~10 µM
- IC50 [1, 3]: 11.6 µM

Structure (SMILES): CC[N+](C)(C)C12CC3CC(C)(CC(C)(C3)C1)C2 [Compound No2, N-Ethyl-N,N-3,5-tetramethyladamantan-1-ammonium iodide]
- IC50 [1, 3]: 18 µM

Structure (SMILES): CCC[N+](C)(C)C12CC3CC(C)(CC(C)(C3)C1)C2 [Compound No3, N-Propyl-N,N-3,5-tetramethyladamantan-1-ammonium iodide]
- IC50 [1, 3]: 29 µM

Structure (SMILES): CC12CC3CC(C)(C1)CC(N)(C3)C2 [Memantine, memantine]
- IC50 [1]: 1 µM
- Brain concentration ([2]; individual rats): 2977 ng/g and 3237 ng/g
- Plasma concentration ([2]; individual rats): 88.69 ng/mL and 94.85 ng/mL
- concentration at 3.75 h ([2]; rat, brain, individual rats, read-out: Brain concentration): 3340 ng/g
- concentration at 3.75 h [2, 4]: 3180 ng/g
- Kp at 3.75 h ([2]; rat, rat, individual rats, read-out: Kp"brain" (total brain/plasma concentration ratio at steady state)): 27.1
- Kp at 3.75 h [2, 5]: 31.6
- concentration at 3.75 h [2, 6]: 123 ng/mL
- concentration at 3.75 h [2, 7]: 102 ng/mL
- Penetration of the BBB / CNS (in words) ([2]; rat): penetrates freely across the BBB
- Kp"brain" (total brain/plasma concentration ratio at steady state) ([2]; rat, individual rats): 33.57 and 34.13

From patent US10538482B2, “Adamantane and memantine derivatives as peripheral NMDA receptor antagonists” (Institut National de la Santé et de la Recherche Médicale …, priority 2015, dated 2020)
